SMILES strings stand for the structures.

The test system of one series is THP-1. Put plainly: Induction of apoptosis in human THP-1 cells assessed as increase in Noxa measured after 24 hrs by Western blot analysis. Format: functional, cell-based. As to conditions: dose 10-20 µM.
The nature of series [1]: Cmax in Sprague-Dawley rat at 5 mg/kg, iv measured upto 24 hrs by LC-MS/MS analysis. In kind it is ADME, organism-based. As to conditions: in vivo.
Series [2] can be described thus: AUC (0 to t) in Sprague-Dawley rat at 5 mg/kg, iv measured upto 24 hrs by LC-MS/MS analysis. As to conditions: in vivo. Format: ADME, organism-based.
A short description of series [3]: MRT (0 to t) in Sprague-Dawley rat at 5 mg/kg, iv measured upto 24 hrs by LC-MS/MS analysis. Format: ADME, organism-based. As to conditions: in vivo.
A short description of series [4]: AUC (0 to t) in Sprague-Dawley rat at 20 mg/kg, ip measured upto 24 hrs by LC-MS/MS analysis. As to conditions: in vivo. In kind it is ADME, organism-based.
Series [5] in a line: AUC (0 to infinity) in Sprague-Dawley rat at 20 mg/kg, ip measured upto 24 hrs by LC-MS/MS analysis. In kind it is ADME, organism-based. Conditions: in vivo.
The nature of series [6]: MRT (0 to t) in Sprague-Dawley rat at 20 mg/kg, ip measured upto 24 hrs by LC-MS/MS analysis. Format: ADME, organism-based. Conditions: in vivo.
A short description of series [7]: MRT (0 to infinity) in Sprague-Dawley rat at 20 mg/kg, ip measured upto 24 hrs by LC-MS/MS analysis. Format: ADME, organism-based. As to conditions: in vivo.
A short description of series [8]: Cytotoxicity against rat H9c2 cells assessed as cell viability measured after 72 hrs by MTT assay. Format: toxicity, cell-based.
Series [9] is described as follows: Toxicity in NOD SCID mouse assessed as change in liver tissue at 25 mg/kg, ip administered for 7 consecutive days by Hematoxylin-eosin (HE) staining based assay. Format: organism-based. Conditions: in vivo, 168 h, time 7 day.
A short description of series [10]: Toxicity in NOD SCID mouse assessed as change in lung tissue at 25 mg/kg, ip administered for 7 consecutive days by Hematoxylin-eosin (HE) staining based assay. Format: organism-based. As to conditions: in vivo, 168 h, time 7 day.
The nature of series [11]: Toxicity in NOD SCID mouse assessed as change in kidney tissue at 25 mg/kg, ip administered for 7 consecutive days by Hematoxylin-eosin (HE) staining based assay. Format: organism-based. As to conditions: in vivo, 168 h, time 7 day.
In series [12] the test system is HL-60. Put plainly: In vivo antitumor activity against human HL-60 cells xenografted in female NOD SCID mouse assessed as tumor growth inhibition at 80 mg/kg, ip once daily after 15 days of tumor inoculation treated for 12 days relative to control. Format: functional. As to conditions: HL-60, 288 h, time 12 day, read-out: TGI. For orientation: Xenograft models place foreign cells or tissue in a host animal.

Series [13] can be described thus: Toxicity in NOD SCID mouse xenografted with human HL-60 cells assessed as change in heart tissue at 80 mg/kg, ip once daily after 15 days of tumor inoculation treated for 12 days. Conditions: in vivo, 288 h, time 12 day. Format: organism-based.
Series [14] is described as follows: Toxicity in NOD SCID mouse xenografted with human HL-60 cells assessed as change in spleen tissue at 80 mg/kg, ip once daily after 15 days of tumor inoculation treated for 12 days. Format: organism-based. Conditions: in vivo, 288 h, time 12 day.
Series [15] in a line: Toxicity in NOD SCID mouse xenografted with human HL-60 cells assessed as change in lung tissue at 80 mg/kg, ip once daily after 15 days of tumor inoculation treated for 12 days. In kind it is organism-based. As to conditions: in vivo, 288 h, time 12 day.
Series [16] in a line: Toxicity in NOD SCID mouse xenografted with human HL-60 cells assessed as change in kidney tissue at 80 mg/kg, ip once daily after 15 days of tumor inoculation treated for 12 days. In kind it is organism-based. As to conditions: in vivo.
The test system of series [17] is HL-60. The series is described as follows: In vivo antitumor activity against human HL-60 cells xenografted in female NOD SCID mouse assessed as tumor growth inhibition at 40 mg/kg, ip once daily after 15 days of tumor inoculation treated for 12 days relative to control. Conditions: read-out: TGI. In kind it is functional.
Series [18] in a line: Toxicity in NOD SCID mouse xenografted with human THP-1 cells assessed as change in lung tissue at 40 to 80 mg/kg, ip once daily after 10 days of tumor inoculation treated for 14 days relative to control. Format: organism-based. Conditions: in vivo, 336 h, dose 40-80 mg/kg, time 14 day.
A short description of series [19]: Toxicity in NOD SCID mouse xenografted with human THP-1 cells assessed as change in spleen tissue at 40 to 80 mg/kg, ip once daily after 10 days of tumor inoculation treated for 14 days relative to control. Conditions: in vivo, 336 h, dose 40-80 mg/kg, time 14 day. Format: organism-based.
The nature of series [20]: Toxicity in NOD SCID mouse xenografted with human THP-1 cells assessed as change in kidney tissue at 40 to 80 mg/kg, ip once daily after 10 days of tumor inoculation treated for 14 days relative to control. In kind it is organism-based. As to conditions: in vivo, 336 h, dose 40-80 mg/kg, time 14 day.
Series [21] can be described thus: Toxicity in NOD SCID mouse xenografted with human THP-1 cells assessed as change in body weight at 40 to 80 mg/kg, ip once daily after 10 days of tumor inoculation treated for 14 days relative to control. Conditions: in vivo, 336 h, dose 40-80 mg/kg, time 14 day. In kind it is organism-based.

Regarding `Cc1cc(OCCCc2c(C(=O)O)n(CCN3CCOCC3)c3c(-c4ccccc4Cn4cc(CCN(CCN5CCOCC5)S(=O)(=O)c5ccc(F)cc5)c5ccccc54)cccc23)cc(C)c1Cl`, the Activity result was “Dose-Dependent Effect” with THP-1; “Non-Toxic” in series [9]; “Non-Toxic” in series [10]; “Non-Toxic” in [11]; “Non-Toxic” in series [13]; “Non-Toxic” in series [14]. In addition, the Activity entry in [15], in series [16], in series [18], in series [19], in [20] and in series [21] was “Non-Toxic” in each case. This compound also returned a Cmax in series [1] of 46500 ng/mL. Further, the results for the AUC(0-t) at 24 h in series [2] and in [4] were 18700 ng·h/mL and 54600 ng·h/mL, respectively. Also, the MRT last at 24 h in series [3] stood at 1.14 h; in series [6], 6.51 h. The AUC(0-inf) in series [5] is 55800 ng·h/mL. Besides, in series [7], the MRT inf was found to be 7.03 h. For the same compound, in [8], the IC50 at 72 h is 17.9 µM. Moreover, in the series on HL-60 [12], the inhibition in vivo at 80 mg/kg was 63.7%. Besides, the inhibition in vivo at 40 mg/kg in the series with HL-60 [17] is 46.1%.

What is called Cmax is the maximum level reached in the sampled fluid or tissue. The term AUC(0-t) denotes exposure summed from dosing to a finite time, without extrapolation to infinity. Read a low AUC(0-t) as low exposure. By MRT last is commonly meant the average time that molecules of a dose stay in the body. In general, AUC(0-inf) refers to the area under the concentration-time curve extrapolated to infinity. Low readings indicate less exposure, high ones more exposure. For orientation: MRT inf means the average time that molecules of a dose stay in the body. By IC50 is commonly meant the concentration needed to halve the response being measured.

Values taken from ChEMBL document CHEMBL5584309, “Discovery of Novel Mcl-1 Inhibitors with a 3-Substituted-1H-indole-1-yl Moiety Binding to the P1-P3 Pockets to Induce Apoptosis in Acute Myeloid Leukemia Cells” (J Med Chem, 2024).
